According to PMC10813153, “Development of a Novel Covalently Bonded Conjugate of Caprylic Acid Tripeptide (Isoleucine–Leucine–Aspartic Acid) for Wound-Compatible and Injectable Hydrogel to Accelerate Healing” (Biomolecules, 2024):
Entries after “also recorded” stand apart in the source; their conditions may differ. Where a SMILES comes first, the peptide text is derived from it. The star is where a group is joined. Palmitoyl = CCCCCCCCCCCCCCCC(=O)*; Myristoyl = CCCCCCCCCCCCCC(=O)*; Lauroyl = CCCCCCCCCCCC(=O)*; Octanoyl = CCCCCCCC(=O)*

What was measured:
[1] = Hydrogel formation, confirmed by vial inversion method; assay type: physicochemical; settings: for Gelation Time: time after the pH was adjusted to 7.4; for Gelation Feature: conjugate 1.5% w/v in PBS saline, pH 6.5–7.8, dissolved at pH 9 then readjusted, sonication, vial inversion; for Hydrogel stability when shaken by hand: visual, compared with other conjugates; for Concentration at which hydrogel forms in PBS: PBS buffer, remained a solution below, vial inversion test
Protocol: Lyophilized fatty acid–peptide conjugates were dissolved in phosphate-buffered saline (PBS) at a final concentration of 0.5% (5.0 mg in 1 mL of PBS), 1.5% (15.0 mg in 1 mL of PBS), and 3% (30.0 mg in 1 mL of PBS). The pH of the peptide solutions was increased to 9.0 by adding 0.1 M NaOH to dissolve the compounds and readjusted to pH 2–8 by the drop-wise addition of 0.1 N HCl, followed by sonication. […] The gel formation was confirmed by the vial inversion method, and photographs were taken.

[2] = Gross assessment of toxicity during wound healing test; design: species or system C57BL/6J mice; settings: mouse, in vivo
Source text: The animal use protocol was authorized and approved by the Institutional Animal Care and Use Committee of Louisiana State University Health Sciences Center, New Orleans, and followed the ARRIVE guidelines. Briefly, full-thickness burn wounds (6 mm diameter) were generated in the dorsal skin on both sides along the midline of C57BL/6J mice (female, 18 months old, Jackson Laboratory, Bar Harbor, ME, USA) at 0 days post burn (dpb), similar to the procedures performed by us and others previously. Each treatment group included four mice. […] We monitored mouse health and behavior, including drinking, foraging, grooming, and eating, and we examined all wounds twice per day to ensure that the hydrogel and dressing stayed in place. Wound healing was assessed as described previously. The wounds were photographed, and their areas were calculated using NIH ImageJ software version 1.54d. […] The livers, kidneys, and spleens were also collected, weighed, and measured for size to obtain a gross assessment of toxicity. […] The epithelial gap—i.e., the distance between the neoepithelium emerging from the edges of the wound area—was measured using OLYMPUS OlyVIA software version 3.4.1 (Build 26606), as described previously but with some modifications.

[3] = Hydrogel formation, confirmed by vial inversion method; assay type: physicochemical; settings: 1.5% w/v in PBS

| SMILES | Gelation Time ([1]; 1.5% w/v in PBS) | Gelation Feature [1] | other results |
| --- | --- | --- | --- |
| CCCCCCCCCCCC(=O)N[C@H](C(=O)N[C@@H](CC(C)C)C(=O)N[C@@H](CC(=O)O)C(=O)O)[C@@H](C)CC [Compound 6] (Lauroyl-Ile-Leu-Asp-OH) | 7 min | Hydrogels were formed | Hydrogel stability when shaken by hand [1]: weaker than those formed by Cn acid-ILD-NH2 with the same Cn acid |
| CCCCCCCCCCCCCCCC(=O)N[C@H](C(=O)N[C@@H](CC(C)C)C(=O)N[C@@H](CC(=O)O)C(=O)O)[C@@H](C)CC [Compound 8] (Palmitoyl-Ile-Leu-Asp-OH) | 15 min | Hydrogels were formed | Hydrogel stability when shaken by hand [1]: weaker than those formed by Cn acid-ILD-NH2 with the same Cn acid |
| CCCCCCCC(=O)N[C@H](C(=O)N[C@@H](CC(C)C)C(=O)N[C@@H](CC(=O)O)C(=O)O)[C@@H](C)CC [Compound 5] (Octanoyl-Ile-Leu-Asp-OH) | – | unable to form a hydrogel at all; also recorded: Not gelate | – |
| CCCCCCCC(=O)N[C@H](C(=O)N[C@@H](CC(C)C)C(=O)N[C@@H](CC(=O)O)C(N)=O)C(C)C [Compound 13] (Octanoyl-Val-Leu-Asp-NH2) | 6 min | – | – |
| CCCCCCCC(=O)N[C@H](C(=O)N[C@@H](C)C(=O)N[C@@H](CC(=O)O)C(N)=O)[C@@H](C)CC [Compound 9] (Octanoyl-Ile-Ala-Asp-NH2) | 2 min | – | – |
| CCCCCCCC(=O)N[C@H](C(=O)N[C@H](C(=O)N[C@@H](CC(=O)O)C(N)=O)C(C)C)[C@@H](C)CC [Compound 10] (Octanoyl-Ile-Val-Asp-NH2) | 3 min | – | – |
| CCCCCCCC(=O)N[C@@H](CC(C)C)C(=O)N[C@H](C(=O)N[C@@H](CC(=O)O)C(N)=O)[C@@H](C)CC [Compound 15] (Octanoyl-Leu-Ile-Asp-NH2) | 5 min | – | – |
| CCCCCCCC(=O)N[C@H](C(=O)N[C@@H](CC(C)C)C(=O)N[C@@H](CC(=O)O)C(N)=O)[C@@H](C)CC [Compound 2, caprylic acid–isoleucine–leucine–aspartic acid amide conjugate] (Octanoyl-Ile-Leu-Asp-NH2) | – | – | Gel stability at pH 2–8 ([1]; 1.5% w/v in PBS, pH 2–8): gelated and stable; also recorded: formed a hydrogel and stayed gelated; Hydrogel stability when shaken by hand [1]: more stable than either (3) or (4); Systematic or local toxicity during the wound healing test [2]: did not show systematic or local toxicity; Gel stability at pH 10 [3]: no gelation |
| CCCCCCCC(=O)N[C@H](C(=O)N[C@H](C(=O)N[C@@H](CC(=O)O)C(N)=O)[C@@H](C)CC)[C@@H](C)CC [Compound 14] (Octanoyl-Ile-Ile-Asp-NH2) | 5 min | – | – |
| CCCCCCCC(=O)N[C@@H](C)C(=O)N[C@@H](CC(C)C)C(=O)N[C@@H](CC(=O)O)C(N)=O [Compound 11] (Octanoyl-Ala-Leu-Asp-NH2) | 3 min | – | – |
| CCCCCCCC(=O)N[C@@H](CC(C)C)C(=O)N[C@@H](CC(C)C)C(=O)N[C@@H](CC(=O)O)C(N)=O [Compound 12] (Octanoyl-Leu-Leu-Asp-NH2) | 5 min | – | – |
| CCCCCCCCCCCC(=O)N[C@H](C(=O)N[C@@H](CC(C)C)C(=O)N[C@@H](CC(=O)O)C(N)=O)[C@@H](C)CC [Compound 3] (Lauroyl-Ile-Leu-Asp-NH2) | 6 min | – | Concentration at which hydrogel forms in PBS [1]: ≥ 0.25 % (w/v) |
| CCCCCCCCCCCCCCCC(=O)N[C@H](C(=O)N[C@@H](CC(C)C)C(=O)N[C@@H](CC(=O)O)C(N)=O)[C@@H](C)CC [Compound 4] (Palmitoyl-Ile-Leu-Asp-NH2) | 10 min | – | Concentration at which hydrogel forms in PBS [1]: ≥ 0.25 % (w/v) |
| CC[C@H](C)[C@H](N)C(=O)N[C@@H](CC(C)C)C(=O)N[C@@H](CC(=O)O)C(N)=O [Compound 1] (H-Ile-Leu-Asp-NH2) | – | did not gelate | – |
| CCCCCCCCCCCCCC(=O)N[C@H](C(=O)N[C@@H](CC(C)C)C(=O)N[C@@H](CC(=O)O)C(=O)O)[C@@H](C)CC [Compound 7] (Myristoyl-Ile-Leu-Asp-OH) | 10 min | Hydrogels were formed | Hydrogel stability when shaken by hand [1]: weaker than those formed by Cn acid-ILD-NH2 with the same Cn acid |
